Counter-ions that a name gives are not always drawn.
Assays:
MKN-45 cells = test: Inhibition of MKN-45 proliferation (MTT); format: cell-based, human; details: Homo sapiens, MKN-45, MKN-45 proliferation
Protocol: Inhibition of MKN-45 Proliferation:
Cell proliferation assays were carried out using the high Met expressing human gastric adenocarcinoma cell line, MKN-45, according to the following schedule:
Day 1: Cells were plated in 96-well plates in complete growth medium.
Day 2: Compounds at desired concentrations were added.
Day 5: Cell viability was determined using the 3-[4,5-dimethylthiazol-2-yl]-2,5-diphenyltetrazolium bromide (MTT) dye reduction test.

melting point	SMILES	inhibition at 0.1 µM (MKN-45 cells)	further results
137 to 140 °C	CN(C)CCCNC(=O)c1ccc(-c2ccc3nnn(Cc4ccc5ncccc5c4)c3n2)cc1F (as salt: hydrochloride) [Ex 121, N-(3-(dimethylamino)propyl)-2-fluoro-4-(3-(quinolin-6-ylmethyl)-3H-[1,2,3]triazolo[4,5-b]pyridin-5-yl)benzamide dihydrochloride]		
144 to 146 °C	COc1ccc(-c2ccc3nnn(Cc4ccc5ncccc5c4)c3n2)cc1 [Ex 1, 6-((5-(4-Methoxyphenyl)-3H-[1,2,3]triazolo[4,5-b]pyridin-3-yl)methyl)quinoline]		inhibition at 1 µM (MKN-45 cells): 25 to 50%
191 to 193 °C	OCc1cccc(-c2ccc3nnn(Cc4ccc5ncccc5c4)c3n2)c1 [Ex 4, (3-(3-(quinolin-6-ylmethyl)-3H-[1,2,3]triazolo[4,5-b]pyridin-5-yl)phenyl)methanol]		GI50 (MKN-45 cells): 150 to 500 nM
210 to 213 °C	OCc1ccc(-c2ccc3nnn(Cc4ccc(F)cc4)c3n2)cc1 [Ex 11, (4-(3-(4-Fluorobenzyl)-3H-[1,2,3]triazolo[4,5-b]pyridin-5-yl)phenyl)methanol]		
211 to 213 °C	O=C(O)c1ccc(-c2ccc3nnn(Cc4c(F)ccc(F)c4Cl)c3n2)cc1F [Ex 18, 4-(3-(2-Chloro-3,6-difluorobenzyl)-3H-[1,2,3]triazolo[4,5-b]pyridin-5-yl)-2-fluorobenzoic acid]		inhibition at 1 µM (MKN-45 cells): < 25%
213 to 215 °C	CNC(=O)c1ccc(-c2ccc3nnn(Cc4c(F)ccc(F)c4Cl)c3n2)cc1F [Ex 19, 4-(3-(2-Chloro-3,6-difluorobenzyl)-3H-[1,2,3]triazolo[4,5-b]pyridin-5-yl)-2-fluoro-N-methylbenzamide]		inhibition at 1 µM (MKN-45 cells): < 25%
140 to 142 °C	FC(F)(F)Oc1cccc(-c2ccc3nnn(Cc4ccc5ncccc5c4)c3n2)c1 [Ex 23, 6-((5-(3-(trifluoromethoxy)phenyl)-3H-[1,2,3]triazolo[4,5-b]pyridin-3-yl)methyl)quinoline]		inhibition at 1 µM (MKN-45 cells): < 25%
255 to 257 °C	Oc1cccc(-c2ccc3nnn(Cc4ccc5ncccc5c4)c3n2)c1 [Ex 24, 3-(3-(quinolin-6-ylmethyl)-3H-[1,2,3]triazolo[4,5-b]pyridin-5-yl)phenol]		inhibition at 1 µM (MKN-45 cells): < 25%
172 to 175 °C	O=C(NC1CCCCC1)c1ccc(-c2ccc3nnn(Cc4ccc5ncccc5c4)c3n2)cc1F [Ex 45, N-cyclohexyl-2-fluoro-4-(3-(quinolin-6-ylmethyl)-3H-[1,2,3]triazolo[4,5-b]pyridin-5-yl)benzamide]		
292 to 294 °C	NCCCNC(=O)c1ccc(-c2ccc3nnn(Cc4ccc5ncccc5c4)c3n2)cc1F [Ex 112, N-(3-Aminopropyl)-2-fluoro-4-(3-(quinolin-6-ylmethyl)-3H-[1,2,3]triazolo[4,5-b]pyridin-5-yl)benzamide]		
197 to 199 °C	O=C(NC1CC1)c1ccc(-c2ccc3nnn(Cc4ccc5ncccc5c4)c3n2)cc1Cl [Ex 113, 2-Chloro-N-cyclopropyl-4-(3-(quinolin-6-ylmethyl)-3H-[1,2,3]triazolo[4,5-b]pyridin-5-yl)benzamide]		
128 to 130 °C	CCCn1cc(-c2ccc3nnn(Cc4ccc5ncccc5c4)c3n2)cn1 [Ex 153, 6-((5-(1-Propyl-1H-pyrazol-4-yl)-3H-[1,2,3]triazolo[4,5-b]pyridin-3-yl)methyl)quinoline]		
> 270 °C	O=C(O)Cn1cc(-c2ccc3nnn(Cc4ccc5ncccc5c4)c3n2)cn1 [Ex 155, 2-(4-(3-(Quinolin-6-ylmethyl)-3H-[1,2,3]triazolo[4,5-b]pyridin-5-yl)-1H-pyrazol-1-yl)acetic acid]		
167 to 169 °C	O[C@@H]1CCN(c2ccc3nnn(Cc4ccc5ncccc5c4)c3n2)C1 [Ex 158, (R)-1-(3-(Quinolin-6-ylmethyl)-3H-[1,2,3]triazolo[4,5-b]pyridin-5-yl)pyrrolidin-3-ol]		
204 to 206 °C	OCCn1cc(-c2ccc3nnn(Cc4ccc(F)cc4)c3n2)cn1 [Ex 161, 2-(4-(3-(4-Fluorobenzyl)-3H-[1,2,3]triazolo[4,5-b]pyridin-5-yl)-1H-pyrazol-1-yl)ethanol]		
143 to 145 °C	OCCn1cc(-c2ccc3nnn(Cc4c(F)ccc(F)c4Cl)c3n2)cn1 [Ex 165, 2-(4-(3-(2-Chloro-3,6-difluorobenzyl)-3H-[1,2,3]triazolo[4,5-b]pyridin-5-yl)-1H-pyrazol-1-yl)ethanol]		
	CC(C)(c1ccc2ncccc2c1)n1nnc2ccc(-c3cnn(CCO)c3)nc21 [Ex 190, 2-(4-(3-(2-(Quinolin-6-yl)propan-2-yl)-3H-[1,2,3]triazolo[4,5-b]pyridin-5-yl)-1H-pyrazol-1-yl)ethanol]	< 25%	inhibition at 1 µM (MKN-45 cells): < 25%
	CC(C)(c1ccc2ncccc2c1)n1nnc2ccc(-c3cn[nH]c3)nc21 [Ex 192, 6-(2-(5-(1H-Pyrazol-4-yl)-3H-[1,2,3]triazolo[4,5-b]pyridin-3-yl)propan-2-yl)quinoline]	< 25%	inhibition at 1 µM (MKN-45 cells): < 25%

melting point	SMILES	inhibition at 0.1 µM (MKN-45 cells)	further results
	O=C(Cn1cc(-c2ccc3nnn(Cc4ccc5ncccc5c4)c3n2)cn1)N1CCCC1 [Ex 200, 1-(Pyrrolidin-1-yl)-2-(4-(3-(quinolin-6-ylmethyl)-3H-[1,2,3]triazolo[4,5-b]pyridin-5-yl)-1H-pyrazol-1-yl)ethanone]	< 25%	
	COCCn1cc(-c2ccc3nnn(Cc4ccc5ncccc5c4)c3n2)cn1 [Ex 201, 6-((5-(1-(2-Methoxyethyl)-1H-pyrazol-4-yl)-3H-[1,2,3]triazolo[4,5-b]pyridin-3-yl)methyl)quinoline]	< 25%	
	c1ccc(Nc2ccc3nnn(Cc4ccc5ncccc5c4)c3n2)cc1 [Ex 202, N-Phenyl-3-(quinolin-6-ylmethyl)-3H-[1,2,3]triazolo[4,5-b]pyridin-5-amine]	< 25%	
	c1ccc(Oc2ccc3nnn(Cc4ccc5ncccc5c4)c3n2)cc1 [Ex 203, 6-((5-Phenoxy-3H-[1,2,3]triazolo[4,5-b]pyridin-3-yl)methyl)quinoline]	< 25%	
	NC(=O)c1cc(-c2ccc3nnn(Cc4ccc5ncccc5c4)c3n2)ccc1F [Ex 206, 2-Fluoro-5-(3-(quinolin-6-ylmethyl)-3H-[1,2,3]triazolo[4,5-b]pyridin-5-yl)benzamide]	50 to 75%	
	NC(=O)c1ccc(-c2ccc3nnn(Cc4c(F)cc5ncccc5c4F)c3n2)cc1Cl [Ex 207, 2-Chloro-4-(3-((5,7-difluoroquinolin-6-yl)methyl)-3H-[1,2,3]triazolo[4,5-b]pyridin-5-yl)benzamide]	75 to 100%	GI50 (MKN-45 cells): ≤ 50 nM
	C/C(=N/NC(N)=O)c1ccc2nnn(Cc3ccc4ncccc4c3)c2n1 [Ex 209, 2-(1-(3-(Quinolin-6-ylmethyl)-3H-[1,2,3]triazolo[4,5-b]pyridin-5-yl)ethylidene) hydrazinecarboxamide]	75 to 100%	GI50 (MKN-45 cells): ≤ 50 nM
	NC(=O)c1ccc(-c2ccc3nnn(Cc4ccc5ncsc5c4)c3n2)cc1Cl [Ex 210, 4-(3-(Benzo[d]thiazol-6-ylmethyl)-3H-[1,2,3]triazolo[4,5-b]pyridin-5-yl)-2-chlorobenzamide]	75 to 100%	GI50 (MKN-45 cells): ≤ 50 nM
	CC(C)(O)c1ccc(-c2ccc3nnn(Cc4ccc5ncccc5c4)c3n2)cc1F [Ex 211, 2-(2-Fluoro-4-(3-(quinolin-6-ylmethyl)-3H-[1,2,3]triazolo[4,5-b]pyridin-5-yl)phenyl)propan-2-ol]		GI50 (MKN-45 cells): 150 to 500 nM
	NC(=O)c1cc(-c2ccc3nnn(Cc4ccc5ncccc5c4)c3n2)ccc1Cl [Ex 212, 2-Chloro-5-(3-(quinolin-6-ylmethyl)-3H-[1,2,3]triazolo[4,5-b]pyridin-5-yl)benzamide]	75 to 100%	inhibition at 1 µM (MKN-45 cells): 25 to 50%
	NC(=O)c1ccc(-c2ccc3ncn(Cc4ccc5ncccc5c4)c3n2)cc1Cl [Ex 215, 2-Chloro-4-(3-(quinolin-6-ylmethyl)-3H-imidazo[4,5-b]pyridin-5-yl)benzamide]	< 25%	
	CC(=NO)c1ccc2nnn(Cc3ccc4ncccc4c3)c2n1 [Ex 216, 1-(3-(Quinolin-6-ylmethyl)-3H-[1,2,3]triazolo[4,5-b]pyridin-5-yl)ethanone oxime]	< 25%	
	CON=C(C)c1ccc2nnn(Cc3ccc4ncccc4c3)c2n1 [Ex 217, 1-(3-(Quinolin-6-ylmethyl)-3H-[1,2,3]triazolo[4,5-b]pyridin-5-yl)ethanone O-methyl oxime]	50 to 75%	
	CC(=O)NN=C(C)c1ccc2nnn(Cc3ccc4ncccc4c3)c2n1 [Ex 218, N′-(1-(3-(Quinolin-6-ylmethyl)-3H-[1,2,3]triazolo[4,5-b]pyridin-5-yl)ethylidene) acetohydrazide]	< 25%	
	CN1CCN(c2ccc3nnn(Cc4ccc5ncccc5c4)c3n2)CC1 [Ex 219, 6-((5-(4-Methylpiperazin-1-yl)-3H-[1,2,3]triazolo[4,5-b]pyridin-3-yl)methyl)quinoline]	< 25%	
	NC(=O)c1ccc(-c2ccc3nnn(Cc4ccc5ncccc5c4)c3n2)cc1C(F)(F)F [Ex 223, 4-(3-(Quinolin-6-ylmethyl)-3H-[1,2,3]triazolo[4,5-b]pyridin-5-yl)-2-(trifluoromethyl)benzamide]	75 to 100%	
	NC(=O)c1ccc(-c2ccc3nnn(Cc4ccc5c(ccc[n+]5[O-])c4)c3n2)cc1Cl [Ex 224, 6-((5-(4-carbamoyl-3-chlorophenyl)-3H-[1,2,3]triazolo[4,5-b]pyridin-3-yl)methyl)quinoline 1-oxide]	25 to 50%	
	CCNC(=O)c1ccc(-c2ccc3nnn(Cc4ccc5ncccc5c4)c3n2)cc1Cl [Ex 225, 2-chloro-N-ethyl-4-(3-(quinolin-6-ylmethyl)-3H-[1,2,3]triazolo[4,5-b]pyridin-5-yl)benzamide hydrochloride]	75 to 100%	inhibition at 1 µM (MKN-45 cells): 50 to 75%

Reference: patent US10590129B2 (Incozen Therapeutics Pvt. Ltd., priority 2010, dated 2020)
